According to ChEMBL document CHEMBL1255498, “Moxifloxacin pharmacokinetics/pharmacodynamics and optimal dose and susceptibility breakpoint identification for treatment of disseminated Mycobacterium avium infection” (Antimicrob Agents Chemother, 2010):
Converted amounts (≈) assume the structure as drawn.

Experiments:
[1] = Antimicrobial activity against Mycobacterium avium subsp. hominissuis ATCC 700898 infected in human THP1 cells in presence of 20% FBS; format: functional, cell-based; details: ATCC 700898, THP-1
Mycobacterium avium = experiment: Antimicrobial activity against Mycobacterium avium by CLSI method
[2] = microbe, parasite or virus in culture; details: Mycobacterium avium, ATCC 700898, 168 h
[3] = microbe, parasite or virus in culture; details: Mycobacterium avium, ATCC 700898
[4] = microbe, parasite or virus in culture; details: Mycobacterium avium, ATCC 700898, 168 h; remark: listed apart in the source
[5] = Antimicrobial activity against Mycobacterium avium subsp. hominissuis ATCC 700898 infected in human THP1 cells in presence of 2% FBS; format: functional, cell-based; details: ATCC 700898, THP-1
[6] = Antimicrobial activity against Mycobacterium avium subsp. hominissuis ATCC 700898 infected in human THP1 cells in presence of 10% FBS; format: functional, cell-based; details: ATCC 700898, THP-1

COc1c(N2C[C@@H]3CCCN[C@@H]3C2)c(F)cc2c(=O)c(C(=O)O)cn(C3CC3)c12 [MOXIFLOXACIN]
EC50 [1]: 5.21 µg/mL | MIC (Mycobacterium avium): 1 µg/mL (≈ 2.49 µM) | EC50 [2]: 8.24 µg/mL (≈ 20.5 µM) | MIC [3]: 1 µg/mL (≈ 2.49 µM) | EC50 [4]: ≥ 32 µg/mL | EC50 [5]: 8.09 µg/mL | EC50 [6]: 5.07 µg/mL
